Experimental data as given in patent US9187497B2, “Substituted pyrido[3,2-e]pyrrolo[1,2-a]pyrazines as inhibitors of poly(ADP-ribose)polymerase (PARP)” (Takeda Phamaceutical Company Limited, priority 2009, dated 2015).

Key:
[1] = target: T1, catalytic domain of Human PARP (Homo sapiens, UniProt P09874); experiment: Biacore surface plasmon resonance affinity assay (dissociation constant KD); assay type: binding; conditions: pKD=-log(KD), KD in molar concentration; Biacore T100, 25° C.
T1 construct: The catalytic domain of Human PARP was cloned and prepared; made in house
T1 sequence (P09874 788-1014 limits assumed): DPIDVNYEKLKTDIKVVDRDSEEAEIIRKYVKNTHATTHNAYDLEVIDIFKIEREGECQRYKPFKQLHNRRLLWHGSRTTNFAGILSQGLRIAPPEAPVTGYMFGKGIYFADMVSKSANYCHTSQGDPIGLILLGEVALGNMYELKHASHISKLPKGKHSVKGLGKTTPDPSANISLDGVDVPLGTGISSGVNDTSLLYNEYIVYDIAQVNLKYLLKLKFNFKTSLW
Experimental: Dissociation Constant (KD) from Surface Plasmon Resonance
The catalytic domain of Human PARP was cloned and prepared as described in Kinoshita, T.; Nakanishi, I.; Warizaya, M.; Iwashita, A.; Kido, Y.; Hattori, K. and Fujii, T. 2006 FEBS Letters 556, 43-46. Purified enzyme was stored at −80° C. in 25 mM Tris(hydroxymethyl)aminomethane (Tris) pH 7.4, 150 mM NaCl, 2 mM dithiothreitol (DTT) at a concentration of 6 mg/ml.
Biacore affinity assays for test compounds were conducted on a Biacore T100 (GE Healthcare) as follows. A Series S Sensor Chip CM5 (part number BR-1006-68, GE Healthcare) was activated for amide coupling with an Amine Coupling Kit (part number BR-1000-50, GE Healthcare) as described by the manufacturer. The mobile phase buffer consisted of Biacore buffer HBS-P (part number BR-1003-68, GE Healthcare) supplemented with 1% v/v dimethylsulfoxide (DMSO), 0.5 mM Tris(2-carboxyethyl)phosphine hydrochloride (TCEP), and 5 mM MgCl2. Enzyme samples (2 μl/6 mg/ml) stored at −80° C. were diluted to 0.080 mg/ml with 10 mM 4-morpholineethanesulfonic acid (MES) pH 6.5 and then mounted on the activated Biacore CM5 chip at a flow rate of 10 μl/min for 240 seconds. When successfully mounted, a signal of approximately 8,000 reflective units was observed. Test compounds were diluted 9 times 2-fold serially in mobile phase buffer (listed above) at 1% v/v DMSO final to generate a concentration gradient bracketing their anticipated KDs. Biacore mounted PARP was given a 1 minute exposure (association phase) to various concentrations of test compounds to observe a steady state equilibrium or an on rate. The exposure was followed with a dissociation phase of 5 minutes. The association and dissociation phases were at a flow rate of 50 μl/min and a temperature of 25° C.
Parameters Rmax (response at saturation) and KD (binding constant) were calculated through a nonlinear least squares fitting of the equation to the data by use of the Biacore T100 analysis software.
Parameter optimization was through a nonlinear least squares analysis of the association phase Response=Rmax*(1−exp(−(kon[cmpd]+koff)*t)) and dissociation phase Response=[…] by use of the Biacore T100 analysis software. The binding constant KD was calculated from the definition KD=koff/kon

PARP = target: T2, PARP (Homo sapiens, UniProt P09874); experiment: PARP ELISA colorimetric assay of inhibition of PARP catalytic activity (IC50); assay type: biochemical; conditions: pIC50=-log(IC50), IC50 in molar concentration; ELISA-based PARP kit, 10 minutes of catalysis
T2 construct: purchased Trevigen 4684-096-01 (enzyme); kit 4684-096-K HT
T2 sequence (P09874 whole entry): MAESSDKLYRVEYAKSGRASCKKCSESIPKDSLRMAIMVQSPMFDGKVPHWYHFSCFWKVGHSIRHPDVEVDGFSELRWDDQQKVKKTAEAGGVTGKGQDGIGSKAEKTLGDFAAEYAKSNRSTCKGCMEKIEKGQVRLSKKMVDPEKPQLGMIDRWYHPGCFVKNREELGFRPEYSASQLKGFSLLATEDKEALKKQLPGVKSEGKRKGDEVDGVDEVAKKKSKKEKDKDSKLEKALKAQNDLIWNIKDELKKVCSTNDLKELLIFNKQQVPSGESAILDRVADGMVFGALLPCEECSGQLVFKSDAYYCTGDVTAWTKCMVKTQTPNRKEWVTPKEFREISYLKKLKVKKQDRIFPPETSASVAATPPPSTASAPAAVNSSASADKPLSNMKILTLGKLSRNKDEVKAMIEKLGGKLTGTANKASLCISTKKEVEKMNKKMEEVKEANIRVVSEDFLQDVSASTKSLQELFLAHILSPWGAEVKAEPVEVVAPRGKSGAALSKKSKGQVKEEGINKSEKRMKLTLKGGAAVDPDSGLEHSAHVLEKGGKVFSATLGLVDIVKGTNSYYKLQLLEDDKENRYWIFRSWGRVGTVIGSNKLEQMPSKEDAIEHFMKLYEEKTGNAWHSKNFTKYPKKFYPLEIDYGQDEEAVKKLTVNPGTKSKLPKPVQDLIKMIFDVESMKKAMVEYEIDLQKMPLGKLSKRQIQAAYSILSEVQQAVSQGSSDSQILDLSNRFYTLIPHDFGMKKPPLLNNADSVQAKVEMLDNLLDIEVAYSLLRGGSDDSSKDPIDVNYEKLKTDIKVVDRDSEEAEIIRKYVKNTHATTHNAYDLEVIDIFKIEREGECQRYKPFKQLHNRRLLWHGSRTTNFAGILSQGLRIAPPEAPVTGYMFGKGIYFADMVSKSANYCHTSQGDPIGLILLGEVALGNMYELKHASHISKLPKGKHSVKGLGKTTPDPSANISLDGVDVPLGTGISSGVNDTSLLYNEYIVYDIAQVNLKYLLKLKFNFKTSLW
How it was run: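 Human PARP was added as a 0.1 nM solution to histone-coated wells with compound for a 10-min ambient preincubation. The reaction was started with 100 μM NAD+ solution plus activated DNA and run 10 min. PAR formation was detected by anti-PAR ELISA, colorimetric. IC50 came from a 12-point, 3-fold gradient fitted by nonlinear least squares to a Hill equation.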

Jurkat cell line = experiment: PARP cellular chemopotentiation assay (MTS cell viability with and without TMZ); assay type: cell-based; conditions: ratio of EC50 for inhibition of cell viability without and with 100 μM TMZ; Jurkat cells, 96 hours of treatment
How it was run: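 Jurkat cells, 10,000/well, pre-cultured 24 h, then treated 96 h with serial compound dilutions (0.5% DMSO) with or without 100 μM TMZ. Viability by MTS conversion (OD490), normalized to DMSO controls; EC50 from curve fits, PF50 = EC50 without TMZ / EC50 with TMZ.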

Kd [1] [nM]	IC50 (PARP) [nM]	melting point [°C]	Structure (SMILES)	PF50 (Jurkat cell line)
< 31.6	≤ 12.6	–	O=C1Nc2cc(CN3CCC(c4ccc(Cl)cc4)CC3)cnc2N2CCSCC12 (stereo not drawn) [Compound 88, 3-((4-(4-chlorophenyl)piperidin-1-yl)methyl)-6a,7,9,10-tetrahydropyrido[3,2-e][1,4]thiazino[4,3-a]pyrazin-6(5H)-one]	≧0
–	–	226	N#Cc1ccc(N2CCN(Cc3cnc4c(c3)NC(=O)[C@@H]3CCCN43)CC2)c(F)c1 [Compound 14, (S)-3-fluoro-4-(4-((6-oxo-5,6,6a,7,8,9-hexahydropyrido[3,2-e]pyrrolo[1,2-a]pyrazin-3-yl)methyl)piperazin-1-yl)benzonitrile]	>500
31.6 to 794	≤ 12.6	–	O=C1CN(Cc2ccccc2)c2ncc(CN3CCN(c4ccc(Cl)cc4)CC3)cc2N1 [Compound 84, 4-benzyl-7-((4-(4-chlorophenyl)piperazin-1-yl)methyl)-3,4-dihydropyrido[2,3-b]pyrazin-2(1H)-one]	≧0
31.6 to 794	≥ 50.1	–	CN1CC(=O)Nc2cc(CN3CCN(c4ccc(Cl)cc4)CC3)cnc21 [Compound 81, 7-((4-(4-chlorophenyl)piperazin-1-yl)methyl)-4-methyl-3,4-dihydropyrido[2,3-b]pyrazin-2(1H)-one]	≧0
–	–	288.9	CCNC(=O)c1ccc(N2CCN(Cc3cnc4c(c3)NC(=O)[C@@H]3CSCCN43)CC2)cc1 [Compound 92, (R)—N-ethyl-4-(4-((6-oxo-5,6,6a,7,9,10-hexahydropyrido[3,2-e][1,4]thiazino[4,3-a]pyrazin-3-yl)methyl)piperazin-1-yl)benzamide]	>5000
–	–	251 to 255	N#Cc1ccc(N2CCN(Cc3cnc4c(c3)NC(=O)[C@@H]3CCCN43)CC2)cc1F [Compound 21, (S)-2-fluoro-4-(4-((6-oxo-5,6,6a,7,8,9-hexahydropyrido[3,2-e]pyrrolo[1,2-a]pyrazin-3-yl)methyl)piperazin-1-yl)benzonitrile]	>2000
≥ 1000	15.8 to 39.8	–	O=C1Nc2cc(CN3CCN(c4ccc(Cl)cc4)CC3)cnc2N2CCCCC12 (stereo not drawn) [Compound 66, 3-((4-(4-chlorophenyl)piperazin-1-yl)methyl)-7,8,9,10-tetrahydro-5H-dipyrido[1,2-a:3′,2′-e]pyrazin-6(6aH)-one]	>10
31.6 to 794	≥ 50.1	–	CN1CC(=O)Nc2cc(CN3CCC(c4ccc(Cl)cc4)CC3)cnc21 [Compound 82, 7-((4-(4-chlorophenyl)piperidin-1-yl)methyl)-4-methyl-3,4-dihydropyrido[2,3-b]pyrazin-2(1H)-one]	≧0
31.6 to 794	≥ 50.1	–	C[C@H]1C(=O)Nc2cc(CN3CCC(c4ccc(Cl)cc4)CC3)cnc2N1C [Compound 53, (S)-7-((4-(4-chlorophenyl)piperidin-1-yl)methyl)-3,4-dimethyl-3,4-dihydropyrido[3,2-b]pyrazin-2(1H)-one]	≧0
31.6 to 794	15.8 to 39.8	–	O=C1CN(Cc2ccccc2)c2ncc(CN3CCC(c4ccc(Cl)cc4)CC3)cc2N1 [Compound 85, 4-benzyl-7-((4-(4-chlorophenyl)piperidin-1-yl)methyl)-3,4-dihydropyrido[2,3-b]pyrazin-2(1H)-one]	≧0
< 31.6	15.8 to 39.8	–	O=C1Nc2cc(CN3CCC(c4ccc(Cl)cc4)CC3)cnc2N2CCCCC12 (stereo not drawn) [Compound 67, 3-((4-(4-chlorophenyl)piperidin-1-yl)methyl)-7,8,9,10-tetrahydro-5H-dipyrido[1,2-a:3′,2′-e]pyrazin-6(6aH)-one]	≧0
–	–	213 to 215	N#Cc1ccc(N2CCN(Cc3cnc4c(c3)NC(=O)[C@@H]3CCCN43)CC2)c(Cl)c1 [Compound 16, (S)-3-chloro-4-(4-((6-oxo-5,6,6a,7,8,9-hexahydropyrido[3,2-e]pyrrolo[1,2-a]pyrazin-3-yl)methyl)piperazin-1-yl)benzonitrile]	>500
–	–	265 to 268	O=C1Nc2cc(CN3CCN(c4ccc(Cl)cc4)CC3)cnc2N2CCC[C@@H]12 [Compound 1, (S)-3-((4-(4-chlorophenyl)piperazin-1-yl)methyl)-6a,7,8,9-tetrahydropyrido[3,2-e]pyrrolo[1,2-a]pyrazin-6(5H)-one]	>500
< 31.6	≤ 12.6	–	CCNC(=O)c1ccc(N2CCN(Cc3cnc4c(c3)NC(=O)[C@@H]3CCCN43)CC2)cc1 [Compound 10, (S)—N-ethyl-4-(4-((6-oxo-5,6,6a,7,8,9-hexahydropyrido[3,2-e]pyrrolo[1,2-a]pyrazin-3-yl)methyl)piperazin-1-yl)benzamide]	>5000
–	–	224 to 227	N#Cc1cc(F)c(N2CCN(Cc3cnc4c(c3)NC(=O)[C@@H]3CCCN43)CC2)cc1F [Compound 17, (S)-2,5-difluoro-4-(4-((6-oxo-5,6,6a,7,8,9-hexahydropyrido[3,2-e]pyrrolo[1,2-a]pyrazin-3-yl)methyl)piperazin-1-yl)benzonitrile]	>2000

Structure (SMILES)	Kd [1] [nM]	IC50 (PARP) [nM]	melting point [°C]	PF50 (Jurkat cell line)
O=C1Nc2cc(CN3CC=C(c4ccc(Cl)cc4)CC3)cnc2N2CCSCC12 (stereo not drawn) [Compound 86, 3-((4-(4-chlorophenyl)-5,6-dihydropyridin-1(2H)-yl)methyl)-6a,7,9,10-tetrahydropyrido[3,2-e][1,4]thiazino[4,3-a]pyrazin-6(5H)-one]	< 31.6	15.8 to 39.8	–	>500
CN1CC(=O)Nc2cc(CN3CC=C(c4ccc(Cl)cc4)CC3)cnc21 [Compound 80, 7-((4-(4-chlorophenyl)-5,6-dihydropyridin-1(2H)-yl)methyl)-4-methyl-3,4-dihydropyrido[2,3-b]pyrazin-2(1H)-one]	< 31.6	≥ 50.1	–	≧0
C[C@H]1C(=O)Nc2cc(CN3CC=C(c4ccc(F)cc4)CC3)cnc2N1C [Compound 56, (S)-7-((4-(4-fluorophenyl)-5,6-dihydropyridin-1(2H)-yl)methyl)-3,4-dimethyl-3,4-dihydropyrido[3,2-b]pyrazin-2(1H)-one]	< 31.6	–	–	≧0
CCN1c2ncc(CN3CC=C(c4ccc(Cl)cc4)CC3)cc2NC(=O)[C@@H]1C [Compound 63, (S)-7-((4-(4-chlorophenyl)-5,6-dihydropyridin-1(2H)-yl)methyl)-4-ethyl-3-methyl-3,4-dihydropyrido[3,2-b]pyrazin-2(1H)-one]	31.6 to 794	–	–	≧0
O=C1CN(Cc2ccccc2)c2ncc(CN3CC=C(c4ccc(Cl)cc4)CC3)cc2N1 [Compound 83, 4-benzyl-7-((4-(4-chlorophenyl)-5,6-dihydropyridin-1(2H)-yl)methyl)-3,4-dihydropyrido[2,3-b]pyrazin-2(1H)-one]	≥ 1000	15.8 to 39.8	–	≧0
C[C@H]1C(=O)Nc2cc(CN3CC=C(c4ccc(Cl)cc4)CC3)cnc2N1C [Compound 52, (S)-7-((4-(4-chlorophenyl)-5,6-dihydropyridin-1(2H)-yl)methyl)-3,4-dimethyl-3,4-dihydropyrido[3,2-b]pyrazin-2(1H)-one]	< 31.6	–	–	≧0
O=C1Nc2cc(CN3CC=C(c4ccc(Cl)cc4)CC3)cnc2N2CCCCC12 (stereo not drawn) [Compound 65, 3-((4-(4-chlorophenyl)-5,6-dihydropyridin-1(2H)-yl)methyl)-7,8,9,10-tetrahydro-5H-dipyrido[1,2-a:3′,2′-e]pyrazin-6(6aH)-one]	≥ 1000	≤ 12.6	–	>10
